Key:
hEP4/Gqs5 = biological target: T1, hEP4/Gqs5 (Homo sapiens, UniProt P35408); assay: FLIPR calcium signal, EP4; format: cell-based; conditions: HEK-293(EBNA) cells
T1 construct: expressed in transfected cells; host or cells: HEK-293(EBNA)
Experimental: (§1) HEK-293(EBNA) cells, stably expressing one type or subtype of recombinant human prostaglandin receptors (prostaglandin receptors expressed: hDP/Gqs5; hEP1; hEP2/Gqs5; hEP3A/Gqi5; hEP4/Gqs5; hFP; hIP; hTP), were cultured in 100 mm culture dishes in high-glucose DMEM medium containing 10% fetal bovine serum, 2 mM l-glutamine, 250 μg/ml geneticin (G418) and 200 μg/ml hygromycin B as selection markers, and 100 units/ml penicillin G, 100 μg/ml streptomycin and 0.25 μg/ml amphotericin B.
(§2) Cells were seeded at a density of 5×10^4 cells per well in Biocoat® Poly-D-lysine-coated black-wall, clear-bottom 96-well plates (Becton-Dickinson) and allowed to attach overnight in an incubator at 37° C. Cells were then washed two times with HBSS-HEPES buffer (Hanks Balanced Salt Solution without bicarbonate and phenol red, 20 mM HEPES, pH 7.4) using a Denley Cellwash plate washer (Labsystems). After 45 minutes of dye-loading in the dark, using the calcium-sensitive dye Fluo-4 […] at a final concentration of 2 μM, plates were washed four times with HBSS-HEPES buffer to remove excess dye leaving 100 μl in each well. Plates were re-equilibrated to 37° C. for a few minutes.
(§3) Cells were excited with an Argon laser at 488 nm, and emission was measured through a 510-570 nm bandwidth emission filter (FLIPR™, Molecular Devices, Sunnyvale, Calif.). Drug solution was added in a 50 μl volume to each well to give the desired final concentration. The peak increase in fluorescence intensity was recorded for each well. On each plate, four wells each served as negative (HBSS-HEPES buffer) and positive controls (standard agonists: BW245C (hDP); PGE2 (hEP1; hEP2/Gqs5; hEP3A/Gqi5; hEP4/Gqs5); PGF2α (hFP); carbacyclin (hIP); U-46619 (hTP), depending on receptor). The peak fluorescence change in each drug-containing well was then expressed relative to the controls.
(§4) Compounds were tested in a high-throughput (HTS) or concentration-response (CoRe) format. In the HTS format, forty-four compounds per plate were examined in duplicates at a concentration of 10^−5 M. To generate concentration-response curves, four compounds per plate were tested in duplicates in a concentration range between 10^−5 and 10^−11 M. The duplicate values were averaged. In either, HTS or CoRe format each compound was tested on at least 3 separate plates using cells from different passages to give an n≧3.

hEP2/Gqs5 = biological target: T2, hEP2/Gqs5 (Homo sapiens, UniProt P43116); assay: FLIPR calcium signal, EP2; format: cell-based; conditions: HEK-293(EBNA) cells
T2 construct: expressed in transfected cells; host or cells: HEK-293(EBNA)
T2 sequence (P43116 whole entry): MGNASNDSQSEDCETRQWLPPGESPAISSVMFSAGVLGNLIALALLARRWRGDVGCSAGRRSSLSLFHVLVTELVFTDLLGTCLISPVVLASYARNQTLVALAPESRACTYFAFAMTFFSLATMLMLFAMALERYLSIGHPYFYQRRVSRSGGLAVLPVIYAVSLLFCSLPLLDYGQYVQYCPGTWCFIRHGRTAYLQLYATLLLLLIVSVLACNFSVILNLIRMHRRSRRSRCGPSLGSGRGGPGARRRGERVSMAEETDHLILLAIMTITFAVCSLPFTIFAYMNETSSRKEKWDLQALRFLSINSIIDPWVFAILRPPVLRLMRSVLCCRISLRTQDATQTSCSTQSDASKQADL
Experimental: as §1, §2, §3, §4

EP2 [1] = biological target: T3, EP2 (Homo sapiens, UniProt P43116); assay: cAMP assay, EP2; format: cell-based; set-up: expressed in transfected cells; host or cells: HEK-EBNA; conditions: HEK-EBNA cells expressing EP2
T3 sequence (P43116 whole entry): as above
Experimental: A 384-well drug plate was prepared to contain 6 test compounds, PGE2 and cAMP in 16 serial dilutions in triplicate, using a Biomek station. HEK-EBNA cells expressing a target PG receptor subtype (EP2 or EP4) were suspended in a stimulation buffer (HBSS, 0.1% BSA, 0.5 mM IBMX and 5 mM HEPES, pH 7.4) in a density of 10^4 cells/5 μl. The reaction was initiated by mixing 5 μL drug dilutions with 5 μl of HEK-EBNA cells in a well, carried out for 30 min at room temperature, and followed by the addition of 5 μl anti-cAMP acceptor beads in the control buffer with Tween-20 (25 mM NaCl, 0.03% Tween-20, 5 mM HEPES, pH7.4). After 30 min in the dark at room temperature, the mixtures were incubated with 15 μl biotinylated-cAMP/strepavidin donor beads in Lysis/Detection buffer (0.1% BSA, 0.3% Tween-20 and 5 mM HEPES, pH7.4) for 45 min at the room temperature. Fluorescence changes were read using a Fusion-alpha HT microplate reader.

EP2 [2] = biological target: T3, EP2; assay: Competition binding [3H]PGE2, EP2 Ki; set-up: expressed in transfected cells; host or cells: HEK 293; conditions: [3H]PGE2 competition, HEK 293 cells expressing human EP2
Experimental: Competition binding experiments were performed in a medium containing Hank's balanced salt solution, Hepes 20 mM, pH 7.3, membranes (˜60 μg protein) or 2×10^5 cells from HEK 293 cells stably expressing human EP2 receptors, [^3H]PGE2 (10 nM) and various concentrations of test compounds in a total volume of 300 μl. Reaction mixtures were incubated at 23° C. for 60 min, and were filtered over Whatman GF/B filters under vacuum. Filters were washed three times with 5 ml ice-cold buffer containing 50 mM Tris/HCl (pH 7.3). Non-specific binding was estimated in the presence of excess unlabeled PGE2 (10 μM). Binding data fitted to the binding model for a single class of binding sites, using nonlinear regression analysis. IC50 values thus obtained were converted to Ki using the equation of Ki=(IC50/(1+[L]/KD) where [L] represents PGE2 concentration (10 nM) and KD the dissociation constant for [^3H]PGE2 at human EP2 receptors (40 nM).
(§5) HEK-293 cells stably expressing the human or feline FP receptor, or EP1, EP2, or EP4 receptors were washed with TME buffer, scraped from the bottom of the flasks, and homogenized for 30 sec using a Brinkman PT 10/35 polytron. TME buffer was added to achieve a final 40 ml volume in the centrifuge tubes (the composition of TME is 100 mM TRIS base, 20 mM MgCl2, […]; 10N HCl is added to achieve a pH of 7.4).
(§6) The cell homogenate was centrifuged at 19000 r.p.m. for 20 min at 4° C. using a Beckman Ti-60 rotor. The resultant pellet was resuspended in TME buffer to give a final 1 mg/ml protein concentration, as determined by Biorad assay. Radioligand binding competition assays vs. [^3H-]17-phenyl PGF2α (5 nM) were performed in a 100 μl volume for 60 min. Binding reactions were started by adding plasma membrane fraction. The reaction was terminated by the addition of 4 ml ice-cold TRIS-HCl buffer and rapid filtration through glass fiber GF/B filters using a Brandel cell harvester. The filters were washed 3 times with ice-cold buffer and oven dried for one hour.
(§7) [^3H-] PGE2 (specific activity 180 Ci mmol) was used as the radioligand for EP receptors. [^3H] 17-phenyl PGF2α was employed for FP receptor binding studies. Binding studies employing EP1, EP2, EP4 and FP receptors were performed in duplicate in at least three separate experiments. A 200 μl assay volume was used. Incubations were for 60 min at 25° C. and were terminated by the addition of 4 ml of ice-cold 50 mM TRIS-HCl, followed by rapid filtration through Whatman GF/B filters and three additional 4 ml washes in a cell harvester (Brandel). Competition studies were performed using a final concentration of 5 nM [^3H]-PGE2, or 5 nM [^3H] 17-phenyl PGF2α and non-specific binding determined with 10^−5M of unlabeled PGE2, or 17-phenyl PGF2α, according to receptor subtype studied.

EP4 receptors = biological target: T4, EP4 receptors (Homo sapiens, UniProt P35408); assay: Radioligand binding [3H]PGE2, EP4 Ki; conditions: [3H]PGE2 competition, HEK-293 cells expressing EP4
T4 construct: expressed in transfected cells; host or cells: HEK-293
T4 sequence (P35408 whole entry): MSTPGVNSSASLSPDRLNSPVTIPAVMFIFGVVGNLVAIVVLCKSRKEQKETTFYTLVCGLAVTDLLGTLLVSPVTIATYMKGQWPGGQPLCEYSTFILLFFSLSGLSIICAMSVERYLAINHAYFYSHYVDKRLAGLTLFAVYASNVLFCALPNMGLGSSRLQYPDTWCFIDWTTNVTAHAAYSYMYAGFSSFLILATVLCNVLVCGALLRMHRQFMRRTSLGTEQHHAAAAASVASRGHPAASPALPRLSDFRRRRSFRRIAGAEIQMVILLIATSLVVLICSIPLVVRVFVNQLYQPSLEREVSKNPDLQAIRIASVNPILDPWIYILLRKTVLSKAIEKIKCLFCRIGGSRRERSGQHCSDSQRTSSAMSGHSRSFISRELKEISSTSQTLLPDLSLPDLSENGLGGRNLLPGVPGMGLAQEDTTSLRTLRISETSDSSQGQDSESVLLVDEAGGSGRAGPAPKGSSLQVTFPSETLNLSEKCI
Experimental: as §5, §6, §7

hDP/Gqs5 = biological target: T5, hDP/Gqs5 (Homo sapiens, UniProt Q13258); assay: FLIPR calcium signal, hDP; format: cell-based; conditions: read-out: Other Receptors (EC50 in nM) hDP
T5 construct: expressed in transfected cells; host or cells: HEK-293(EBNA)
T5 sequence (Q13258 1-359): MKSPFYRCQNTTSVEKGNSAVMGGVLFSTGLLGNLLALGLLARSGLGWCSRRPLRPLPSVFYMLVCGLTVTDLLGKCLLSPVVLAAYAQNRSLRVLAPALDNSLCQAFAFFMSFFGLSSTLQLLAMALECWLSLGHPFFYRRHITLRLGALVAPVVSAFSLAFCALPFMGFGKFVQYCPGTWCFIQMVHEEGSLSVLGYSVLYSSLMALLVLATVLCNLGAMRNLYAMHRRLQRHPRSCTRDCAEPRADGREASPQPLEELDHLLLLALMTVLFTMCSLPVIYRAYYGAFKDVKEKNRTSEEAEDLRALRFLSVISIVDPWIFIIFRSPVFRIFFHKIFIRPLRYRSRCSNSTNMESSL
Experimental: as §1, §2, §3, §4

normotensive dogs = assay: Intraocular pressure and ocular surface hyperemia in normotensive dogs; format: in vivo, dog; set-up: scale not given here
Source text: U.S. Pat. No. 7,091,231 describes the methods used for these in vivo tests.

hTP = biological target: T6, hTP (Homo sapiens, UniProt P21731); assay: FLIPR calcium signal, hTP; format: cell-based; conditions: read-out: Other Receptors (EC50 in nM) hTP
T6 construct: expressed in transfected cells; host or cells: HEK-293(EBNA)
T6 sequence (P21731 1-343): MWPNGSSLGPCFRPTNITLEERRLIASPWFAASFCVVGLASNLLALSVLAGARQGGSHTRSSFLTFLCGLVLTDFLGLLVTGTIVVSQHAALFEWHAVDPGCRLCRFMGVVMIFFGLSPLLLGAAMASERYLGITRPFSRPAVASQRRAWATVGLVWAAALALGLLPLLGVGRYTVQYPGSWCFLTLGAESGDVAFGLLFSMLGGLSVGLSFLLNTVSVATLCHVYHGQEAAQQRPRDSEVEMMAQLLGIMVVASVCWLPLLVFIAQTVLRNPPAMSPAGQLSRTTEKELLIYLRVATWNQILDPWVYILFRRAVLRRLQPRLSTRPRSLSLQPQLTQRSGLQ
Experimental: as §1, §2, §3
Compounds were tested in a high-throughput (HTS) or concentration-response (CoRe) format. […]

[3] = 0.001%, once daily for 5 days, at 50 h

T1 sequence (P35408 whole entry): as the sequence (P35408 whole entry) above

Row | SMILES | EC50 (hEP4/Gqs5) | EC50 (hEP2/Gqs5) | EC50 (EP2 [1]) | Ki (EP2 [2]) | Ki (EP4 receptors) | EC50 (hDP/Gqs5) | maximum ocular surface hyperemia (OSH) score (normotensive dogs; [3]) | EC50 (hTP) | maximum ocular surface hyperemia (OSH) score (normotensive dogs; 0.0001%, once daily for 5 days, at 74 h) | maximum ocular surface hyperemia (OSH) score (normotensive dogs; 0.0005%, once daily for 5 days, at 50 h) | maximum ocular surface hyperemia (OSH) score (normotensive dogs; 0.01%, once daily for 5 days, at 26 h) | maximum ocular surface hyperemia (OSH) score (normotensive dogs; 0.001%, once daily for 4 days, at 74 h) | maximum ocular surface hyperemia (OSH) score (normotensive dogs; 0.001%, once daily for 5 days, at 26 h) | maximum ocular surface hyperemia (OSH) score (normotensive dogs; 0.01%, once daily for 5 days, at 74 h)
1 | O=C(O)c1ccc(CCC[C@@H]2[C@@H](CCc3cc(Cl)cc(CO)c3)[C@H](O)C[C@H]2Cl)s1 [11c, 5-(3-((1R,2R,3R,5R)-5-chloro-2-(3-chloro-5-(hydroxymethyl)phenethyl)-3-hydroxycyclopentyl)propyl)thiophene-2-carboxylic acid] | > 10 µM | 86 nM | 0.08 nM | 1 nM | 437 nM | 2940 nM | 0.8 | – | – | – | – | – | – | –
2 | OCc1ccc(CCC[C@@H]2[C@@H](CCc3cc(Cl)cc(Cl)c3)[C@H](O)C[C@H]2Cl)s1 [compound 13, (1R,2R,3R,4R)-4-chloro-2-(3,5-dichlorophenethyl)-3-(3-(5-(hydroxymethyl)thiophen-2-yl)propyl)cyclopentanol] | – | 10200 nM | 284 nM | 502 nM | > 10000 nM | – | – | – | – | – | – | – | – | –
3 | O=C(O)c1ccc(CCC[C@@H]2[C@@H](CCc3cc(Cl)cc(Cl)c3)[C@H](O)C[C@H]2Cl)s1 [11a, 5-(3-((1R,2R,3R,5R)-5-chloro-2-(3,5-dichlorophenethyl)-3-hydroxycyclopentyl)propyl)thiophene-2-carboxylic acid] | > 10 µM | 18 nM | 0.09 nM | 0.2 nM | 616 nM | – | 1.8 | > 10000 nM | 0.8 | 1.75 | 2.5 | – | – | –
4 | O=C(O)c1ccc(CCC[C@@H]2[C@@H](CCc3cc(Cl)nc(Cl)c3)[C@H](O)C[C@H]2Cl)s1 [11b, 5-(3-((1R,2R,3R,5R)-5-chloro-2-(2-(2,6-dichloropyridin-4-yl)ethyl)-3-hydroxycyclopentyl)propyl)-thiophene-2-carboxylic acid] | > 10 µM | 13 nM | 0.05 nM | 1 nM | 582 nM | – | – | – | – | – | – | 1.9 | – | –
5 | CC(C)OC(=O)c1ccc(CCC[C@@H]2[C@@H](CCc3cc(Cl)cc(CO)c3)[C@H](O)C[C@H]2Cl)s1 [compound 18, Isopropyl 5-(3-((1R,2R,3R,5R)-5-chloro-2-(3-chloro-5-(hydroxymethyl)phenethyl)-3-hydroxycyclopentyl)propyl)thiophene-2-carboxylate] | – | – | – | – | – | – | – | – | – | – | – | – | 0.9 | –
6 | O=C(O)CCCCCC[C@@H]1[C@@H](CCc2cc(Cl)cc(Cl)c2)[C@H](O)C[C@H]1Cl [compound 6, 7-{(1R,2R,3R,5R)-5-Chloro-2-[2-(3,5-dichloro-phenyl)-ethyl]-3-hydroxy-cyclopentyl}-heptanoic acid] | 10.2 µM | 3270 nM | 0.8 nM | 22 nM | 394 nM | – | – | 4620 nM | – | – | – | – | – | 0.8
7 | Cc1cc(C)cc(CC[C@@H]2[C@@H](CCCc3ccc(C(=O)O)s3)[C@H](Cl)C[C@H]2O)c1 [11e, 5-(3-((1R,2R,3R,5R)-5-chloro-2-(3,5-dimethylphenethyl)-3-hydroxycyclopentyl)propyl)thiophene-2-carboxylic acid] | > 10 µM | 287 nM | 0.4 nM | 3 nM | 966 nM | 15300 nM | – | – | – | – | – | – | – | –

From patent US7592366B2, “Therapeutic compounds” (Allergan, Inc., priority 2006, dated 2009)
